Source: patent publication US20050070570A1, “Novel potassium channels modulators” (4SC AG, priority 2003, published 2005)

Target: BK channels (CHO cells permanently transfected with cloned hSlo, α-hSlo and β-bSlo) (Homo sapiens, UniProt Q12791)
Test: Em-Assay: fluorescence membrane potential assay with voltage sensitive dye DiBAC(4)3
Format: cell-based
Conditions: ratio of the compound effect (50 μM) compared to the maximal effect of NS004 (25 or 50 μM)
From the text: The large conductance, voltage-dependent and Ca^2+-activated potassium channel BK is a potassium selective ion channel and belongs to the subfamily of KCa channels. Four BK alpha-subunits form a functional channel that can be regulated by intracellular Ca^2+ concentration, membrane voltage, and other mechanisms like phosphorylation states or beta subunits. To test the biological activity of the compounds, we applied two different techniques, a fluorescence based assay using a voltage sensitive dye (Em-Assay) as well as exploiting electrophysiological methods.
CHO cells permanently transfected with cloned hSlo (α-hSlo and β-bSlo), yielding typical BK potassium currents (Zhou et al., Pflügers Arch., 436: 725-734 (1998), were used for the evaluation of compound activity. Activation or inhibition of BK channels in these cells leads to a change of the electrochemical gradient causing a hyperpolarized or depolarised membrane potential, respectively.
To determine changes in the membrane potential of the cells we used the voltage sensitive dye DiBaC(4)3 (Molecular Probes) in a kinetic assay system using a fluorescent plate reader (Manning and Sontheimer, J. Neurosci. Meth., 91: 73-81 (1999). The anionic bis-oxonol DiBAC(4)3 is a voltage sensitive dye which partitions from the extracellular environment into the cell where it reversibly binds to intracellular proteins, a kinetic process depending on the membrane potential of the cell. At depolarised potentials (i.e. at a reduced K^+ efflux due to blocked K^+ channels) the dye accumulates in the cell leading to an increased fluorescence intensity, due to its increased fluorescence if bound to cellular proteins. At hyperpolarized potentials (i.e. at an increased K^+ efflux due to the opening of K^+ channels), the dye partitions out of the cell causing a decreased fluorescence intensity.
hslo transfected CHO cells where maintained in DMEM supplemented with 10% FCS, 250 μg/ml Geneticin, 100 μg/m Hygromycin, 1×HT-Supplement, and 1×Non-essential Amino Acids and cultured in a humidified CO2 incubator. After trypsination, cells where plated with a density of 5×10^4 cells per well on a clear 96-well plate and incubated for 24 h. Cells where washed once with PBS, once with PBS containing 20 mM HEPES (adjusted to pH 7.4 with NaOH) and 2 μM DiBAC(4)3 (DPBS-DiBAC solution). 180 μl of the dPBS-DiBAC solution was then added to the cells and the plate incubated for 30-60 min at 37° C. During this time the dye could partition into the cells and reach a certain steady-state distribution, depending on the resting membrane potential. Test and reference compounds were stored as DMSO stock solutions and diluted in dPBS-DiBAC solution to the desired concentration.
Fluorescence intensity (Ex.: 485 nm/Em.: 520 nm) of each well was detected in the plate reader (Fluostar, BMG) every 60 seconds. After recording the baseline fluorescence for 7 minutes, 20 μl test- and reference compounds were added and the fluorescence intensity was detected for additional 15 minutes. Background was subtracted, data values were normalized and expressed as a change in fluorescence intensity against time. The change in fluorescence intensity caused by the test compounds was evaluated, compared to the effect of the reference compound NS004, and the ratio was determined (see Table I).

Chain of BK channels (CHO cells permanently transfected with cloned hSlo, α-hSlo and β-bSlo) (Q12791 whole entry): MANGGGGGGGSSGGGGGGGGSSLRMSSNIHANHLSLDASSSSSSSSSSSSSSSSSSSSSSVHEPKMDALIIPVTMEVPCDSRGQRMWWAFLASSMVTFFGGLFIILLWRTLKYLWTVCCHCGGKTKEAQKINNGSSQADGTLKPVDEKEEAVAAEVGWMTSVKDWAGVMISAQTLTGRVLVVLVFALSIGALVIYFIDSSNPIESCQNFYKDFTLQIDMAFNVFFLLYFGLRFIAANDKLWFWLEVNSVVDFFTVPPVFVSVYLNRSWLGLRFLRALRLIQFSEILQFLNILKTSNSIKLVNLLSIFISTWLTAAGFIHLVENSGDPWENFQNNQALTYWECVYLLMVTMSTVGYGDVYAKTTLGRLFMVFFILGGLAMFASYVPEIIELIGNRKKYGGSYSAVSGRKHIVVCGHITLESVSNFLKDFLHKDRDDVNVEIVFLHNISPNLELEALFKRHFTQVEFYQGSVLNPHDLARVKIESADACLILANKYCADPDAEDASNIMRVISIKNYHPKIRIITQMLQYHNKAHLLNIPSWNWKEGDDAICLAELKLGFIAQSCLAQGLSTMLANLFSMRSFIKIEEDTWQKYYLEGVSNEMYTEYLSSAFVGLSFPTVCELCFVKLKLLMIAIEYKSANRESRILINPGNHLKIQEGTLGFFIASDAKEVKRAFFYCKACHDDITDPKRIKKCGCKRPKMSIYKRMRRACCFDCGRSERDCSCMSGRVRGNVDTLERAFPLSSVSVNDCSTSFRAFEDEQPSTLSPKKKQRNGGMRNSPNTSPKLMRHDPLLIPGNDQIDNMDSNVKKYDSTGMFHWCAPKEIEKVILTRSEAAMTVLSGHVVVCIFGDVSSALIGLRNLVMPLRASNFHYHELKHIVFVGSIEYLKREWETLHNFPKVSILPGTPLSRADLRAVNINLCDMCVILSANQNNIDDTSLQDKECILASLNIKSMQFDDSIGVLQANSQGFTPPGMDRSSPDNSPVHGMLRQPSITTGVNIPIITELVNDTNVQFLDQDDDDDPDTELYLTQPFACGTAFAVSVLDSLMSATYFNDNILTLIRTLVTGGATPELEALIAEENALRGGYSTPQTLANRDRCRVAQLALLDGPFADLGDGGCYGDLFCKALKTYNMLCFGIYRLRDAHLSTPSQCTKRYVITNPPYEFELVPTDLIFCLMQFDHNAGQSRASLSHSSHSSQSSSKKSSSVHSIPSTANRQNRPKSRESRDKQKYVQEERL
Chain of BK channels (CHO cells permanently transfected with cloned hSlo, α-hSlo and β-bSlo) (Q28067 whole entry partner): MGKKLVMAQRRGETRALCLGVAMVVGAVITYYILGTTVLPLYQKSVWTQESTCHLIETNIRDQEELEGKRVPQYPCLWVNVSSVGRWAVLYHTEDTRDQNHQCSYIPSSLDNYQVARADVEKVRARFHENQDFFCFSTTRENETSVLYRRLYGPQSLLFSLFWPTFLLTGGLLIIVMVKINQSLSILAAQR

| SMILES | Em effect |
| --- | --- |
| COc1ccc(C(=O)N2CCc3cc(OC)cc(OC)c3C2c2ccc(-c3ccccc3)cc2)cc1 (stereo not shown) [Compound 1, (1-Biphenyl-4-yl-6,8-dimethoxy-3,4-dihydro-1H-isoquinolin-2-yl)-(4-methoxy-phenyl)-methanone] | + (0-1=+) |
| COc1cc2c(c(OC)c1)C(c1ccc(-c3ccccc3)cc1)N(C(=O)c1ccc(C(C)(C)C)cc1)CC2 (stereo not shown) [Compound 6, (1-Biphenyl-4-yl-6,8-dimethoxy-3,4-dihydro-1H-isoquinolin-2-yl)-(4-tert-butyl-phenyl)-methanone] | + (0-1=+) |
| COc1cc2c(c(OC)c1)C(c1ccc(-c3ccccc3)cc1)N(C(=O)c1cc(C(F)(F)F)cc(C(F)(F)F)c1)CC2 (stereo not shown) [Compound 8, (1-Biphenyl-4-yl-6,8-dimethoxy-3,4-dihydro-1H-isoquinolin-2-yl)-(3,5-bis-trifluoromethyl-phenyl)methanone] | + (0-1=+) |
| COc1cccc(C(=O)N2CCc3cc(OC)cc(OC)c3C2c2ccc(O)cc2)c1 (stereo not shown) [Compound 9, [1-(4-Hydroxy-phenyl)-6,8-dimethoxy-3,4-dihydro-1H-isoquinolin-2-yl]-(3-methoxy-phenyl)-methanone] | + (0-1=+) |
| COc1cc2c(c(OC)c1)C(c1ccc(O)cc1)N(C(=O)CCCCBr)CC2 (stereo not shown) [Compound 10, 5-Bromo-1-[1-(4-hydroxy-phenyl)-6,8-dimethoxy-3,4-dihydro-1H-isoquinolin-2-yl]-pentan-1-one] | + (0-1=+) |
| COc1cc2c(c(OC)c1)C(c1ccc(O)cc1)N(C(=O)c1cccc(OC(F)(F)F)c1)CC2 (stereo not shown) [Compound 11, [1-(4-Hydroxy-phenyl)-6,8-dimethoxy-3,4-dihydro-1H-isoquinolin-2-yl]-(3-trifluoromethoxy-phenyl)-metanone] | + (0-1=+) |
| COc1cc2c(c(OC)c1)C(c1ccc(O)cc1)N(C(=O)c1ccc(C(C)(C)C)cc1)CC2 (stereo not shown) [Compound 14, (4-tert-Butyl-phenyl)-[1-(4-hydroxy-phenyl)-6,8-dimethoxy-3,4-dihydro-1-H-isoquinolin-2-yl]-methanone] | + (0-1=+) |
| COc1cc2c(c(OC)c1)C(c1ccc(O)cc1)N(C(=O)c1cnc3ccccc3n1)CC2 (stereo not shown) [Compound 16, [1-(4-Hydroxy-phenyl)-6,8-dimethoxy-3,4-dihydro-1H-isoquinolin-2-yl]-quinoxalin-2-yl-methanone] | + (0-1=+) |
| COc1cc2c(c(OC)c1)C(c1ccc(O)cc1)N(C(=O)c1cccc3ccccc13)CC2 (stereo not shown) [Compound 17, [1-(4-Hydroxy-phenyl)-6,8-dimethoxy-3,4-dihydro-1H-isoquinolin-2-yl]-naphthalen-1-yl-methanone] | + (0-1=+) |
| COc1cc2c(c(OC)c1)C(c1ccc(O)cc1)N(C(=O)c1ccc(C(F)(F)F)cc1)CC2 (stereo not shown) [Compound 20, [1-(4-Hydroxy-phenyl)-6,8-dimethoxy-3,4-dihydro-1H-isoquinolin-2-yl]-(4-trifluoromethyl-phenyl)methanone] | + (0-1=+) |
| COc1ccc(C(=O)N2CCc3cc(OC)cc(OC)c3C2c2ccc(O)cc2)cc1 (stereo not shown) [Compound 22, [1-(4-Hydroxy-phenyl)-6,8-dimethoxy-3,4-dihydro-1H-isoquinolin-2-yl]-(4-methoxy-phenyl)-methanone] | + (0-1=+) |
| COc1cc2c(c(OC)c1)C(c1ccc(O)cc1)N(C(=O)CCC1CCCCC1)CC2 (stereo not shown) [Compound 23, 3-Cyclohexyl-1-[1-(4-hydroxy-phenyl)-6,8-dimethoxy-3,4-dihydro-1H-isoquinolin-2-yl]-propan-1-one] | + (0-1=+) |
| COc1cc2c(c(OC)c1)C(c1ccc(O)cc1)N(C(=O)c1cccs1)CC2 (stereo not shown) [Compound 25, [1-(4-Hydroxy-phenyl)-6,8-dimethoxy-3,4-dihydro-1H-iso-quinolin-2-yl]-thiophen-2-yl-methanone] | + (0-1=+) |
| COc1cc2c(c(OC)c1)C(c1ccc(O)cc1)N(C(=O)c1ccc3c(c1)OCO3)CC2 (stereo not shown) [Compound 26, Benzo[1,3]dioxol-5-yl-[1-(4-hydroxy-phenyl)-6,8-dimethoxy-3,4-dihydro-1H-isoquinolin-2-yl]-methanone] | + (0-1=+) |
| COc1cc2c(c(OC)c1)C(c1cccc(OC(F)(F)F)c1)N(C(C)=O)CC2 (stereo not shown) [Compound 29, 1-[6,8-Dimethoxy-1-(3-trifluoromethoxy-phenyl)-3,4-dihydro-1H-isoquinolin-2-yl]-ethanone] | ++ (>1-1.5=++) |

Further lines, results first:

| Em effect | SMILES |
| --- | --- |
| + (0-1=+) | COc1cc2c(c(OC)c1)C(c1ccc(-c3ccccc3)cc1)N(C(=O)c1ccc([N+](=O)[O-])cc1)CC2 (stereo not shown) [Compound 2, (1-Biphenyl-4-yl-6,8-dimethoxy-3,4-dihydro-1H-isoquinolin-2-yl)-(4-nitro-phenyl)-methanone] |
| + (0-1=+) | COc1cc2c(c(OC)c1)C(c1ccc(-c3ccccc3)cc1)N(C(=O)c1cccc(Br)c1)CC2 (stereo not shown) [Compound 3, (1-Biphenyl-4-yl-6,8-dimethoxy-3,4-dihydro-1H-isoquinolin-2-yl)-(3-bromo-phenyl) methanone] |
| + (0-1=+) | COc1cc2c(c(OC)c1)C(c1ccc(-c3ccccc3)cc1)N(C(=O)c1ccc(C(F)(F)F)cc1)CC2 (stereo not shown) [Compound 4, (1-Biphenyl-4-yl-6,8-dimethoxy-3,4-dihydro-1H-isoquinolin-2-yl)-(4-trifluoromethylphenyl)-methanone] |
| + (0-1=+) | COc1cc2c(c(OC)c1)C(c1ccc(-c3ccccc3)cc1)N(C(=O)c1ccc(C(F)(F)F)cc1F)CC2 (stereo not shown) [Compound 5, (1-Biphenyl-4-yl-6,8-dimethoxy-3,4-dihydro-1H-isoquinolin-2-yl)-(2-fluoro-4-trifluoromethyl-phenyl)-methanone] |
| + (0-1=+) | COc1cc2c(c(OC)c1)C(c1ccc(-c3ccccc3)cc1)N(C(=O)c1ccc(OC(F)(F)F)cc1)CC2 (stereo not shown) [Compound 7, (1-Biphenyl-4-yl-6,8-dimethoxy-3,4-dihydro-1H-isoquinolin-2-yl)-(4-trifluoromethoxy-phenyl)-methanone] |
| + (0-1=+) | COc1cc2c(c(OC)c1)C(c1ccc(O)cc1)N(C(=O)CCc1ccccc1)CC2 (stereo not shown) [Compound 12] |
| + (0-1=+) | COc1cc2c(c(OC)c1)C(c1ccc(O)cc1)N(C(=O)c1ccccc1OC(F)(F)F)CC2 (stereo not shown) [Compound 13] |
| + (0-1=+) | COc1cc2c(c(OC)c1)C(c1ccc(O)cc1)N(C(=O)c1ccc(-c3ccccc3)cc1)CC2 (stereo not shown) [Compound 15, Biphenyl-4-yl-[1-(4-hydroxy-phenyl)-6,8-dimethoxy-3,4-dihydro-1H-isoquinolin-2-yl]-methanone] |
| + (0-1=+) | COc1cc2c(c(OC)c1)C(c1ccc(O)cc1)N(C(=O)c1cccc(C(F)(F)F)c1)CC2 (stereo not shown) [Compound 18, [1-(4-Hydroxy-phenyl)-6,8-dimethoxy-3,4-dihydro-1H-isoquinolin-2-yl]-(3-trifluoromethyl-phenyl)-methanone] |
| + (0-1=+) | COc1cc2c(c(OC)c1)C(c1ccc(O)cc1)N(C(=O)C1CCCC1)CC2 (stereo not shown) [Compound 19, Cyclopentyl-[1-(4-hydroxy-phenyl)-6,8-dimethoxy-3,4-dihydro-1H-isoquinolin-2-yl]-methanone] |
| +++ (>1.5=+++) | COc1cc2c(c(OC)c1)C(c1ccc(O)cc1)N(C(=O)CCC1CCCC1)CC2 (stereo not shown) [Compound 21, 3-Cyclopentyl-1-[1-(4-hydroxy-phenyl)-6,8-dimethoxy-3,4-dihydro-1H-isoquinolin-2-yl]-propan-1-one] |
| + (0-1=+) | COc1cc2c(c(OC)c1)C(c1ccc(O)cc1)N(C(=O)c1sc3ccccc3c1Cl)CC2 (stereo not shown) [Compound 24, (3-Chloro-benzo[b]thiophen-2-yl)-[1-(4-hydroxy-phenyl)-6,8-dimethoxy-3,4-dihydro-1H-iso-quinolin-2-yl]-methanone] |
| + (0-1=+) | COc1cc2c(c(OC)c1)C(c1ccc(O)cc1)N(C(=O)c1ccno1)CC2 (stereo not shown) [Compound 27, [1-(4-Hydroxy-phenyl)-6,8-dimethoxy-3,4-dihydro-1H-isoquinolin-2-yl]-isoxazol-5-yl-methanone] |
